# Experimental data published in patent publication US11414431B2, “Substituted pyrazolo[1,5-a]pyrimidines as TYK2 inhibitors” (Nimbus Lakshmi, Inc., priority 2018, dated 2022).
# Tested on: IL-12 induced STAT4 phosphorlyation mediated by TYK2/JAK2
# Assay: IL-12 Induced pSTAT4 in Human PBMC
# Assay type: cell-based
# Settings: 1.7 ng/mL IL-12 for 30 minutes
# Summary of the method: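 Thawed human PBMC pre-incubated with compound 1 hr at 37° C (0.1% DMSO final), then stimulated 30 minutes with IL-12 at 1.7 ng/mL final. pSTAT4 and total STAT4 measured in cell lysates with MSD reagents.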
row,SMILES,IC50 [µM]
1,CNc1cc(-c2cn([C@@H]3COC[C@H]3OC)c3ccccc23)nc2c(C(=O)N[C@H]3CC[C@H]3O)cnn12 [Compound I-787],< 0.1
2,CNc1cc(-c2cn([C@H]3COC[C@@H]3OC)c3ccccc23)nc2c(C(=O)N[C@H]3CC[C@H]3O)cnn12 [Compound I-790],< 0.1
3,"CNc1cc(-c2cn([C@H]3[C@@H]4COC[C@@H]43)c3ncccc23)nc2c(C(=O)N[C@H]3CC[C@@H]3OC)cnn12 [Compound I-793, 5-(1-((1R,5S,6r)-3-oxabicyclo[3.1.0]hexan-6-yl)-1H-pyrrolo[2,3-b]pyridin-3-yl)-N-((1S,2S)-2-methoxycyclobutyl)-7-(methylamino)pyrazolo[1,5-a]pyrimidine-3-carboxamide]",< 0.1
4,CNc1cc(-c2cn(CCOC)c3ncccc23)nc2c(C(=O)NC3CC[C@@H]3OC)cnn12 (some centres unmarked) [Compound I-795],< 0.1
5,CNc1cc(-c2cn([C@H]3CCOC[C@H]3OC)c3ncccc23)nc2c(C(=O)N[C@H]3CC[C@@H]3F)cnn12 [Compound I-796],< 0.1
6,CNc1cc(-c2cn([C@@H]3CCOC[C@@H]3OC)c3ncccc23)nc2c(C(=O)N[C@H]3CC[C@@H]3F)cnn12 [Compound I-798],< 0.1
7,CNc1cc(-c2cn([C@H]3CCOC[C@@H]3F)c3ncccc23)nc2c(C(=O)N[C@H]3CC[C@@H]3OC)cnn12 [Compound I-802],< 0.1
8,CNc1cc(-c2cn([C@@H]3CCOC[C@H]3F)c3ncccc23)nc2c(C(=O)N[C@H]3CC[C@@H]3OC)cnn12 [Compound I-804],< 0.1
9,CNc1cc(-c2cn([C@@H]3CCC4(C3)OCCO4)c3ncccc23)nc2c(C(=O)N[C@H]3CC[C@@H]3OC)cnn12 [Compound I-806],< 0.1
10,CNc1cc(-c2cn([C@H]3CCC4(C3)OCCO4)c3ncccc23)nc2c(C(=O)N[C@H]3CC[C@@H]3OC)cnn12 [Compound I-808],< 0.1
11,CNc1cc(-c2cn([C@H]3CCOC[C@H]3OC)c3ncccc23)nc2c(C(=O)N[C@@H]3CCC3(F)F)cnn12 [Compound I-811],< 0.1
12,CNc1cc(-c2cnc3n([C@@H]4COC[C@H]4O)cccc2-3)nc2c(C(=O)NC3CC[C@@H]3F)cnn12 (some centres unmarked) [Compound I-827],< 0.1
13,CNc1cc(-c2cnc3n([C@H]4COC[C@@H]4O)cccc2-3)nc2c(C(=O)N[C@H]3CC[C@@H]3F)cnn12 [Compound I-828],< 0.1
14,CNc1cc(-c2cnc3n([C@@H]4COC[C@H]4O)cccc2-3)nc2c(C(=O)N[C@H]3CC[C@@H]3F)cnn12 [Compound I-830],< 0.1
15,CNc1cc(-c2cnc3n([C@H]4COC[C@@H]4OC)cccc2-3)nc2c(C(=O)N[C@H]3CC[C@@H]3F)cnn12 [Compound I-833],< 0.1
16,CNc1cc(-c2cnc3n([C@@H]4COC[C@H]4OC)cccc2-3)nc2c(C(=O)NC3CC[C@@H]3F)cnn12 (some centres unmarked) [Compound I-835],< 0.1

row,SMILES,IC50 [µM]
1,CNc1cc(-c2cnc3n([C@H]4COC[C@@H]4OC)cccc2-3)nc2c(C(=O)NC3CC[C@H]3F)cnn12 (some centres unmarked) [Compound I-838],< 0.1
2,CNc1cc(-c2cnc3n([C@H]4COC[C@@H]4OC)cccc2-3)nc2c(C(=O)N[C@H]3CC[C@H]3F)cnn12 [Compound I-839],< 0.1
3,CNc1cc(-c2cnc3n([C@H]4COC[C@@H]4OC)cccc2-3)nc2c(C(=O)N[C@@H]3CC[C@@H]3F)cnn12 [Compound I-840],< 0.1
4,CNc1cc(-c2cnc3n([C@@H]4COC[C@H]4OC)cccc2-3)nc2c(C(=O)NC3CC[C@H]3F)cnn12 (some centres unmarked) [Compound I-841],< 0.1
5,CNc1cc(-c2cnc3n([C@@H]4CCOC[C@H]4O)cccc2-3)nc2c(C(=O)N[C@H]3CC[C@@H]3F)cnn12 [Compound I-848],< 0.1
6,CNc1cc(-c2cnc3n([C@@H]4COC[C@H]4OC)cccc2-3)nc2c(C(=O)NC3CC[C@H]3O)cnn12 (some centres unmarked) [Compound I-865],0.5 to 1
7,CNc1cc(-c2cnc3n([C@@H]4COC[C@H]4OC)cccc2-3)nc2c(C(=O)N[C@@H]3CC[C@@H]3O)cnn12 [Compound I-867],0.1 to 0.5
8,CNc1cc(-c2cnc3n([C@@H]4COC[C@H]4O)cccc2-3)nc2c(C(=O)N[C@@H]3CC[C@H]3OC)cnn12 [Compound I-876],< 0.1
9,CNc1cc(-c2cnc3n([C@H]4COC[C@@H]4O)cccc2-3)nc2c(C(=O)NC3CC[C@@H]3OC)cnn12 (some centres unmarked) [Compound I-877],0.1 to 0.5
10,CNc1cc(-c2cnc3n([C@H]4COC[C@@H]4O)cccc2-3)nc2c(C(=O)N[C@@H]3CC[C@H]3OC)cnn12 [Compound I-878],< 0.1
11,CNc1cc(-c2cnc3n([C@H]4COC[C@@H]4OC)cccc2-3)nc2c(C(=O)NC3CC[C@@H]3OC)cnn12 (some centres unmarked) [Compound I-880],< 0.1
12,CNc1cc(-c2cnc3n([C@H]4COC[C@@H]4OC)cccc2-3)nc2c(C(=O)N[C@@H]3CC[C@H]3OC)cnn12 [Compound I-881],< 0.1
13,CNc1cc(-c2cnc3n([C@@H]4COC[C@H]4OC)cccc2-3)nc2c(C(=O)NC3CC[C@@H]3OC)cnn12 (some centres unmarked) [Compound I-883],< 0.1
14,CNc1cc(-c2cnc3n([C@@H]4COC[C@H]4OC)cccc2-3)nc2c(C(=O)N[C@@H]3CC[C@H]3OC)cnn12 [Compound I-884],< 0.1
15,CNc1cc(-c2cnc3n([C@@H]4CCOC[C@H]4OC)cccc2-3)nc2c(C(=O)N[C@@H]3CC[C@H]3OC)cnn12 [Compound I-896],< 0.1
16,CNc1cc(-c2cnc3n([C@H]4COC[C@@H]4O)cccc2-3)nc2c(C(=O)NC3CCC3(F)F)cnn12 (some centres unmarked) [Compound I-898],< 0.1

# Second part, the compound after the results:
row,IC50 [µM],SMILES
1,< 0.1,CNc1cc(-c2cnc3n([C@@H]4COC[C@H]4O)cccc2-3)nc2c(C(=O)NC3CCC3(F)F)cnn12 (some centres unmarked) [Compound I-901]
2,< 0.1,CNc1cc(-c2cnc3n([C@@H]4COC[C@H]4O)cccc2-3)nc2c(C(=O)N[C@H]3CCC3(F)F)cnn12 [Compound I-902]
3,< 0.1,CNc1cc(-c2cn([C@H]3C[C@@H](COC)C3)c3ncccc23)nc2c(C(=O)NC3CC[C@H]3O)cnn12 (some centres unmarked) [Compound I-912]
4,< 0.1,CNc1cc(-c2cn([C@H]3C[C@@H](COC)C3)c3ncccc23)nc2c(C(=O)N[C@@H]3CC[C@@H]3O)cnn12 [Compound I-914]
5,< 0.1,CNc1cc(-c2cn([C@H]3[C@@H]4COC[C@@H]43)c3ncccc23)nc2c(C(=O)N[C@H]3CC[C@@H]3O)cnn12 [Compound I-915]
6,0.1 to 0.5,CNc1cc(-c2cn([C@H]3CCOC[C@@H]3F)c3ncccc23)nc2c(C(=O)N[C@H]3CC[C@H]3O)cnn12 [Compound I-916]
7,< 0.1,CNc1cc(-c2cn([C@@H]3CCOC[C@H]3F)c3ncccc23)nc2c(C(=O)N[C@H]3CC[C@H]3O)cnn12 [Compound I-918]
8,< 0.1,CNc1cc(-c2cn(CC(=O)N(C)C)c3ncccc23)nc2c(C(=O)N[C@H]3CC[C@@H]3OC)cnn12 [Compound I-921]
9,< 0.1,CNc1cc(-c2cn(CCOC)c3ncccc23)nc2c(C(=O)N[C@H]3CC[C@@H]3OC)cnn12 [Compound I-923]
10,0.1 to 0.5,CNc1cc(-c2cn(CC(=O)N3CCC3)c3ncccc23)nc2c(C(=O)N[C@H]3CC[C@@H]3OC)cnn12 [Compound I-929]
11,0.1 to 0.5,CNc1cc(-c2cn(CC(=O)N3CCCC3)c3ncccc23)nc2c(C(=O)NC3CC[C@@H]3OC)cnn12 (some centres unmarked) [Compound I-931]
12,0.1 to 0.5,CNc1cc(-c2cn([C@@H]3CCOC[C@H]3F)c3ncccc23)nc2c(C(=O)N[C@H]3COC[C@H]3O)cnn12 [Compound I-937]
13,0.5 to 1,CNc1cc(-c2cnc3n([C@H]4CCOC[C@H]4F)cccc2-3)nc2c(C(=O)NC3CC[C@H]3O)cnn12 (some centres unmarked) [Compound I-942]
14,< 0.1,CNc1cc(-c2cnc3n([C@@H]4CN(C)C[C@H]4OC)cccc2-3)nc2c(C(=O)NC3CC[C@@H]3OC)cnn12 (some centres unmarked) [Compound I-943]
15,< 0.1,CNc1cc(-c2cnc3n([C@@H]4CN(C)C[C@H]4OC)cccc2-3)nc2c(C(=O)N[C@H]3CC[C@@H]3OC)cnn12 [Compound I-944]
16,< 0.1,CNc1cc(-c2cnc3n([C@H]4CN(C)C[C@@H]4OC)cccc2-3)nc2c(C(=O)N[C@H]3CC[C@@H]3OC)cnn12 [Compound I-947]

# Same assay, conditions: 0.5 h, 1.7 ng/mL IL-12 for 30 minutes
row,SMILES,IC50 [µM]
1,"CNc1cc(-c2cn([C@H]3[C@@H]4COC[C@@H]43)c3ncccc23)nc2c(C(=O)NC3CC[C@@H]3OC)cnn12 (stereo partly drawn) [Compound I-792, 5-(1-((1R,5S,6r)-3-oxabicyclo[3.1.0]hexan-6-yl)-1H-pyrrolo[2,3-b]pyridin-3-yl)-N-((trans-1,2)-2-methoxycyclobutyl)-7-(methylamino)pyrazolo[1,5-a]pyrimidine-3-carboxamide]",< 0.1
2,"CNc1cc(-c2cnc3n([C@H]4COC[C@@H]4O)cccc2-3)nc2c(C(=O)NC3CC[C@@H]3F)cnn12 (stereo partly drawn) [Compound I-826, N-((trans-1,2)-2-Fluorocyclobutyl)-5-(7-((3S,4R)-4-hydroxytetrahydrofuran-3-yl)-7H-pyrrolo[2,3-b]pyridin-3-yl)-7-(methylamino)pyrazolo[1,5-a]pyrimidine-3-carboxamide]",< 0.1

# Further lines, results first:
row,IC50 [µM],SMILES
1,< 0.1,"CNc1cc(-c2cn([C@H]3C[C@@H](OC)C3)c3ncccc23)nc2c(C(=O)NC3CC[C@@H]3OC)cnn12 (stereo partly drawn) [Compound I-925, N-(2-methoxycyclobutyl)-5-(1-((1s,3S)-3-methoxycyclobutyl)-1H-pyrrolo[2,3-b]pyridin-3-yl)-7-(methylamino)pyrazolo[1,5-a]pyrimidine-3-carboxamide]"
2,< 0.1,"CNc1cc(-c2cn([C@H]3C[C@@H](COC)C3)c3ncccc23)nc2c(C(=O)NC3CC[C@@H]3OC)cnn12 (stereo partly drawn) [Compound I-932, N-(2-methoxycyclobutyl)-5-(1-((1s,3R)-3-(methoxymethyl)cyclobutyl)-1H-pyrrolo[2,3-b]pyridin-3-yl)-7-(methylamino)pyrazolo[1,5-a]pyrimidine-3-carboxamide]"
3,0.1 to 0.5,"CNc1cc(-c2cnc3n([C@@H]4CCOC[C@@H]4F)cccc2-3)nc2c(C(=O)NC3CC[C@H]3O)cnn12 (stereo partly drawn) [Compound I-939, 5-(7-((3R,4R)-3-fluorotetrahydro-2H-pyran-4-yl)-7H-pyrrolo[2,3-b]pyridin-3-yl)-N-((cis-1,2)-2-hydroxycyclobutyl)-7-(methylamino)pyrazolo[1,5-a]pyrimidine-3-carboxamide]"
